# From PubChem BioAssay (NCI)
# “And” between values parts separate entries of the source, which are not always exact repeats. Equal entries are not always repeated.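 Step 1: Grow cells in 96-well plates. Step 2: Expose to compound for 48 hours at 5 concentrations. Step 3: Interpolate endpoints linearly; if unreached, use highest concentration. At the GI50, growth is halved. The concentration for full growth arrest is given as TGI.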
# What was measured:
# Assay in all cases: NCI anticancer screen, dose series, 48 h
# DU-145 prostate = test system: DU-145 prostate
# UACC-62 melanoma = test system: UACC-62 melanoma
# U251 CNS = test system: U251 CNS
# CAKI-1 renal = test system: CAKI-1 renal
# 786-0 renal = test system: 786-0 renal
# HCT-116 colon = test system: HCT-116 colon
# SK-OV-3 ovarian = test system: SK-OV-3 ovarian
# A498 renal = test system: A498 renal
# MALME-3M melanoma = test system: MALME-3M melanoma
# MDA-MB-231 breast = test system: MDA-MB-231 breast
SMILES,GI50 (DU-145 prostate),TGI (DU-145 prostate),GI50 (UACC-62 melanoma),TGI (UACC-62 melanoma),GI50 (U251 CNS),TGI (U251 CNS),GI50 (CAKI-1 renal),TGI (CAKI-1 renal),GI50 (786-0 renal),TGI (786-0 renal),GI50 (HCT-116 colon),TGI (HCT-116 colon),GI50 (SK-OV-3 ovarian),TGI (SK-OV-3 ovarian),GI50 (A498 renal),TGI (A498 renal),GI50 (MALME-3M melanoma),TGI (MALME-3M melanoma),GI50 (MDA-MB-231 breast),TGI (MDA-MB-231 breast)
CCC[n+]1cc2cc3c(cc2c2c1-c1cc4c(cc1C2)OCO4)OCO3 (tested in a mixture with another compound),1.27 µM,7.73 µM,0.465 µM,1.7 µM,0.229 µM,3.32 µM,25.8 µM,> 91.8 µM,0.46 µM,10 µM,0.758 µM,11.3 µM,3.57 µM,16.4 µM,11.2 µM,25.7 µM,0.29 µM,1.53 µM,2.39 µM,12.1 µM
OC(CN1CCCC2CCCCC21)c1cc2ccccc2c2ccccc12 (stereo not given),3.73 µM,14 µM,2.32 µM,6.58 µM,1.85 µM,3.77 µM,2.36 µM,8.15 µM,1.84 µM,3.6 µM,1.29 µM,2.56 µM,3.16 µM,10.8 µM,2.21 µM,5.8 µM,1.53 µM,3.45 µM,1.69 µM,4.06 µM
C#CCOc1cccc(Nc2ncnc3cc(NC(=O)C=C)ccc23)c1,3.55 µM,> 100 µM,9.82 µM,> 100 µM,17.4 µM,> 100 µM,6.08 µM,> 100 µM,5.97 µM,48.1 µM,4.02 µM,> 100 µM,7.88 µM,> 100 µM,4.25 µM,46.6 µM,17.6 µM,> 100 µM,6.47 µM,> 100 µM
CCCCSc1nc(N)c2cn[nH]c2n1,23.9 µM,72 µM,16.8 µM,40.8 µM,28.1 µM,> 64.1 µM,18.2 µM,44.4 µM,21.2 µM,57.3 µM,14.1 µM,34.8 µM,37 µM,> 92.3 µM,15.9 µM,31 µM,24.6 µM,42.9 µM,15.5 µM,35.2 µM
Cc1nc2sc(C(=O)Nc3ccccc3)c(N)c2cc1C(O)c1ccccc1 (stereo not given),0.362 µM,20.9 µM,0.382 µM,> 48.3 µM,0.292 µM,> 100 µM,0.243 µM,> 100 µM,0.553 µM,20 µM,0.255 µM,12.8 µM,0.523 µM,38.5 µM,0.106 µM,1.19 µM,0.6 µM,34.3 µM,0.411 µM,> 64.6 µM
C[C@@H](CS[As](C)C)C(=O)N1CCC[C@H]1C(=O)O,0.19 µM,1.68 µM,0.207 µM,0.855 µM,0.482 µM,2.43 µM,0.0977 µM,0.409 µM,0.0752 µM,1.01 µM,0.167 µM,> 100 µM,0.625 µM,14.6 µM,0.804 µM,9.67 µM,0.164 µM,1.15 µM,0.226 µM,1.35 µM
COC(=O)c1c2c(c(C)[n+]([O-])c1C)C(=O)C(NCc1ccc(F)cc1)=CC2=O,2.11 µM,4.76 µM,1.25 µM,2.65 µM,1.81 µM,5.14 µM,2.06 µM,6 µM,2.85 µM,30.1 µM,0.957 µM,6.28 µM,2.92 µM,9.11 µM,1.57 µM,3.29 µM,0.187 µM,0.493 µM,1.46 µM,4.36 µM
O=C1C(Cl)=C(Nc2cc(Cl)ccc2O)C(=O)N1Cc1ccccc1,18 µM,33.5 µM,16.2 µM,30.8 µM,15.8 µM,29.6 µM,18.3 µM,40.9 µM,18.2 µM,33 µM,19.4 µM,35.6 µM,19.7 µM,43.3 µM,19.7 µM,35.7 µM,20.7 µM,37.5 µM,17.5 µM,33.2 µM
c1cc(C2CCCCC2)ccc1-c1cnc2nonc2n1,1.35 µM,3.02 µM,0.393 µM,1.96 µM,1.18 µM,2.44 µM,1.08 µM,3.18 µM,0.506 µM,1.9 µM,0.468 µM,1.93 µM,2.21 µM,5.98 µM,0.565 µM,2.32 µM,1.18 µM,2.66 µM,1.33 µM,4.01 µM
Cc1c(NC(=O)Nc2c(Cl)cccc2Cl)c(=O)n(-c2ccccc2)n1C,–,> 100 µM,–,> 100 µM,–,> 100 µM,–,> 100 µM,–,> 100 µM,–,> 100 µM,–,> 100 µM,–,> 100 µM,–,> 100 µM,–,> 100 µM
Cc1ccc(N=Nc2c(O)ccc3n[nH]nc23)cc1,16.1 µM,44.9 µM,4.52 µM,47.7 µM,11.4 µM,> 100 µM,4.63 µM,38.9 µM,20.3 µM,> 100 µM,12.5 µM,> 100 µM,10.3 µM,> 100 µM,1.99 µM,42.2 µM,8.17 µM,48 µM,13 µM,> 100 µM
C=C1C(=O)O[C@@H]2CC(CO)=C([C@@H](C)CCCO)[C@@H](OC(=O)/C(C)=C\C)[C@H]12,–,27.7 µM,–,47.8 µM,–,37.6 µM,–,63.4 µM,–,52.1 µM,–,26.5 µM,–,> 100 µM,–,> 74.1 µM,–,32.5 µM,–,57.2 µM
Oc1ccc(Cl)cc1Sc1cc(Cl)ccc1O,3.83 µM,30.5 µM and 13.7 µM,3.24 µM,17.1 µM and 10.7 µM,3.31 µM,22.1 µM and 12.2 µM,6.82 µM,34.8 µM and 29.6 µM,11.9 µM,33 µM and 25.2 µM,2.79 µM,19.7 µM and 7.21 µM,4.86 µM,43.5 µM and 19.1 µM,2.73 µM,24.2 µM and 7.72 µM,2.41 µM,20.3 µM and 6.81 µM,2.72 µM,31.7 µM and 7.71 µM
